The nature of data set [1]: Cytotoxicity against human THP-1 assessed as reduction in cell viability measured after 72 hrs by CCK-8 assay. As to conditions: THP-1 cells. Type of data set: toxicity, cell-based.
Data set [2] addresses NACHT, LRR and PYD domains-containing protein 3 (Homo sapiens, UniProt Q96P20). The experiment in a line: Inhibition of NLRP3 inflammasome activation in PMA differentiated LPS-primed human THP-1 cells assessed as reduction in nigericin-induced IL-1beta level pretreated for 2 hrs followed by nigericin addition and measured after 30 mins by ELISA. Type of data set: cell-based.

The target of data set [3] is NACHT, LRR and PYD domains-containing protein 3 (Mus musculus) (UniProt Q8R4B8). As to the kind of experiment: Binding affinity to NLRP3 in mouse RAW264.7 cells assessed as thermal stabilization at 100 uM at 52 to 56 degreeC incubated for 6 hrs by cellular thermal shift assay. The data set is classed as cell-based.
NACHT, LRR and PYD domains-containing protein 3 (Mus musculus), sequence (Q8R4B8 whole entry, the tested form may be a part): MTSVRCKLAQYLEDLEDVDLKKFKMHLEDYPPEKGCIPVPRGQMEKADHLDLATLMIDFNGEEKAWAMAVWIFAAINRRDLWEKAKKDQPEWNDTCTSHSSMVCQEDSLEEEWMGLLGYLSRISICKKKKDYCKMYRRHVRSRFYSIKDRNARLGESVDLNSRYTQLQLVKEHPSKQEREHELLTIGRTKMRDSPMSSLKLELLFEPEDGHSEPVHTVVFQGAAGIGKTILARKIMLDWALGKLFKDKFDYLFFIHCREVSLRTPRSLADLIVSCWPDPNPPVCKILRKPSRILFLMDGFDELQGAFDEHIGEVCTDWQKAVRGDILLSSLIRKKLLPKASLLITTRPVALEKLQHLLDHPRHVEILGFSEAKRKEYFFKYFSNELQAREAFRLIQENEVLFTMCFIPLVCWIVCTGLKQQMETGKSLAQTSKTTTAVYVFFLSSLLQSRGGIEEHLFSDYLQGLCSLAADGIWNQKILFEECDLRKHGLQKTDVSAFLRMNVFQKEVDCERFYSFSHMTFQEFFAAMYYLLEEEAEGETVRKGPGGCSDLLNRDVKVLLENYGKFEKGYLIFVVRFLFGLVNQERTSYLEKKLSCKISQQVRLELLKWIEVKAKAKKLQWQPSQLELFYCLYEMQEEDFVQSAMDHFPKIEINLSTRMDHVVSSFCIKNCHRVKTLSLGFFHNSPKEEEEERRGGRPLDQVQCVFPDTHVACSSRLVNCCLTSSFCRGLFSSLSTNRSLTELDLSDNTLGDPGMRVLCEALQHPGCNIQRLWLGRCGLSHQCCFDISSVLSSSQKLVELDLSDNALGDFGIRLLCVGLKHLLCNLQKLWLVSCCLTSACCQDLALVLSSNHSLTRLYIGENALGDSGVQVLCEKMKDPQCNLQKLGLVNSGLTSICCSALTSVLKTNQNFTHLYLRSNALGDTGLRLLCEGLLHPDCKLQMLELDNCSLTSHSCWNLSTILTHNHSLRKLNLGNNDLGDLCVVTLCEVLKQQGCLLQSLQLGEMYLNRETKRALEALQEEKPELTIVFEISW
Data set [4] can be described thus: Fluorescence property of the compound in DMSO assessed as maximum absorption wavelength. Type of data set: physicochemical.
The nature of data set [5]: Fluorescence property of the compound in DMSO assessed as maximum emission wavelength. The data set is classed as physicochemical.
Data set [6] in a line: Fluorescence property of the compound in DMSO assessed as molar extinction coefficient. Type of data set: physicochemical.
Data set [7] in a line: Fluorescence property of the compound in DMSO assessed as quantum yield. Type of data set: physicochemical.
Data set [8] is described as follows: Drug distribution in cytoplasm of mouse RAW264.7 cells expressing NLRP3 assessed as increase in green fluorescence at 10 uM incubated for 0.5 hrs by Hoechst 33342 staining based confocal microscopic analysis. The data set is classed as ADME, subcellular. As to conditions: raw264.7, 0.5 h.
For data set [9], the target named is NACHT, LRR and PYD domains-containing protein 3 (Mus musculus) (UniProt Q8R4B8). The experiment in a line: Binding affinity to NLRP3 in mouse RAW264.7 cells assessed as increase in mean fluorescence intensity at 10 uM incubated for 30 mins by beckman coulter based flow cytometry analysis. Type of data set: cell-based. For orientation: A flow cytometer gives signals particle by particle.

Data set [10] shares this target. The experiment in a line: Binding affinity to NLRP3 in mouse RAW264.7 cells assessed as increase in mean fluorescence intensity at 10 uM preincubated with LPS for 3 hrs followed by compound addition and measured after 30 mins by beckman coulter based flow cytometry analysis. The data set is classed as cell-based.

By CC50 is commonly meant the concentration that lowers cell viability or growth by half. As usually defined, the IC50 is the concentration at which inhibition is half-maximal.

Activity calls are given as the source filed them. The calls are words filed in the database; no cut-off is given here.

NACHT, LRR and PYD domains-containing protein 3, sequence (Q96P20 whole entry, the tested form may be a part): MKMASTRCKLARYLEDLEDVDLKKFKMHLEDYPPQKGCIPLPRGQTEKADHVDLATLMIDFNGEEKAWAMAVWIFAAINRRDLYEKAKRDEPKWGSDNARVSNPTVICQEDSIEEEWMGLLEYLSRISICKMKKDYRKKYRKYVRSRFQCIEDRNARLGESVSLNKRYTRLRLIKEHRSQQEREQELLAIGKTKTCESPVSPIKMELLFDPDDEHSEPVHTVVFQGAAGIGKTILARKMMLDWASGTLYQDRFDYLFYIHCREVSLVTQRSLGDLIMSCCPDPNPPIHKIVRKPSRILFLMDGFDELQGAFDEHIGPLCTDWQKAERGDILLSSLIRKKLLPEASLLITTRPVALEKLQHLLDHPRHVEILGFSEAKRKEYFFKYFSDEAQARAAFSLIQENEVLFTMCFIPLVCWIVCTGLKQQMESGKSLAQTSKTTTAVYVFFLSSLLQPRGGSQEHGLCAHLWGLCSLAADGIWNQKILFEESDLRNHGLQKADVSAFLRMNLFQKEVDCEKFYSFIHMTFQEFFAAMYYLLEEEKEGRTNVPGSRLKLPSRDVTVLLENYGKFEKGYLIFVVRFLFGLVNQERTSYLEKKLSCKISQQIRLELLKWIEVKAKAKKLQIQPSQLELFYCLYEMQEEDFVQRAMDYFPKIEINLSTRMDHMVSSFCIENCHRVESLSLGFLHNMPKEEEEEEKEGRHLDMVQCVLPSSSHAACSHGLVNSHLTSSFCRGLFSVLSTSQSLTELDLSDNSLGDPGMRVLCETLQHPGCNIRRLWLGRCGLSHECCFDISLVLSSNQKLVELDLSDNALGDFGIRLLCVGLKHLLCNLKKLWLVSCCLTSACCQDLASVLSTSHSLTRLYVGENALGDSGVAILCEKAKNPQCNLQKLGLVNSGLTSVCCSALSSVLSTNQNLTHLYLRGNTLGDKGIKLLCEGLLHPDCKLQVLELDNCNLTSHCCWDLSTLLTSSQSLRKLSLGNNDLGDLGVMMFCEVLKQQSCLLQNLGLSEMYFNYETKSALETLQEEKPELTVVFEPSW

Take `CN(C)[C@@H]1CCCC[C@H]1N(C)c1ccc(S(=O)(=O)NC(=O)Nc2c3c(cc4c2CCC4)CCC3)c2nonc12`: the CC50 at 72 h in data set [1] is greater than 100 µM.

With `O=C(Nc1c2c(cc3c1CCC3)CCC2)NS(=O)(=O)c1ccc(NC2CC(F)(F)C2)c2nonc12`, the CC50 at 72 h in [1] is greater than 100 µM.

For the molecule `CN(C)c1ccc(S(=O)(=O)NC(=O)Nc2c3c(cc4c2CCC4)CCC3)c2n[se]nc12`, the CC50 at 72 h in data set [1] was greater than 100 µM.

`CN(C)c1cccc2c(S(=O)(=O)NC(=O)Nc3c4c(cc5c3CCC5)CCC4)cccc12`: the IC50 in data set [2] was 9.18 µM. For the same molecule, the CC50 at 72 h in [1] was greater than 100 µM.

As to `O=C(Nc1c2c(cc3c1CCC3)CCC2)NS(=O)(=O)c1ccc(N2CCOCC2)c2nonc12`, in data set [1], the CC50 at 72 h is greater than 100 µM.

`O=C(Nc1c2c(cc3c1CCC3)CCC2)NS(=O)(=O)c1ccc(Cl)c2nonc12`: the CC50 at 72 h in [1] was greater than 100 µM.

As to `CC(C)(C)OC(=O)NC1CN(c2ccc(S(=O)(=O)NC(=O)Nc3c4c(cc5c3CCC5)CCC4)c3nonc23)C1`, in data set [1], the CC50 at 72 h is greater than 100 µM.

With `O=C(Nc1c2c(cc3c1CCC3)CCC2)NS(=O)(=O)c1ccc(N2C[C@@H]3[C@@H](CO)[C@@H]3C2)c2nonc12`, the CC50 at 72 h in data set [1] was greater than 100 µM.

As for `CC(C)(O)c1coc(S(=O)(=O)NC(=O)Nc2c3c(cc4c2CCC4)CCC3)c1`, the CC50 at 72 h in data set [1] was determined as 81.4 µM.

With `CN(C)c1ccc(S(=O)(=O)NC(=O)Nc2c3c(cc4c2CCC4)CCC3)c2nonc12`, the CC50 at 72 h in data set [1] was greater than 100 µM. In addition, the outcome in data set [3] was Active. Further, the Activity came out at 448 nm in [4], 586 nm in data set [5], 7406 M⁻¹ cm⁻¹ in [6] and 16% in data set [7].

With `O=C(Nc1c2c(cc3c1CCC3)CCC2)NS(=O)(=O)c1ccc(N2CCN(CCO)CC2)c2nonc12`, the IC50 in [2] was 2.38 µM. The CC50 at 72 h in [1] was greater than 100 µM.

Consider `O=C(Nc1c2c(cc3c1CCC3)CCC2)NS(=O)(=O)c1ccc(N2CC3CCC(C2)O3)c2nonc12`, for which, in data set [1], the CC50 at 72 h was greater than 100 µM.

Regarding `CSc1ccc(S(=O)(=O)NC(=O)Nc2c3c(cc4c2CCC4)CCC3)c2nonc12`, in data set [1], the CC50 at 72 h is greater than 100 µM.

As to `CN(C)c1ccc(S(=O)(=O)NC(=O)Nc2c3c(cc4c2CCC4)CCC3)c2nsnc12`, in [1], the CC50 at 72 h is greater than 100 µM. The outcome in [3], in [9] and in data set [10] was Active. Further, the Activity came to 450 nm in [4], 602 nm in [5], 8085 M⁻¹ cm⁻¹ in [6] and 6% in data set [7]. For the same molecule, in [8], the Drug uptake entry is “Active”.

Values taken from ChEMBL document CHEMBL5120824, “Synthesis and pharmacological validation of fluorescent diarylsulfonylurea analogues as NLRP3 inhibitors and imaging probes” (Eur J Med Chem, 2022).
